PubChem BioAssay (NCI)
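Tested at 5 concentrations; 48 h exposure; 96-well plates; endpoints linearly interpolated, else capped at highest concentration. GI50 marks 50% less growth. TGI denotes the concentration required for complete inhibition of growth.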

Tests used:
Test in all cases: NCI tumour cell line growth inhibition, 48 h
786-0 renal = test system: 786-0 renal
A498 renal = test system: A498 renal
A549 NSCLC = test system: A549 NSCLC
ACHN renal = test system: ACHN renal
BT-549 breast = test system: BT-549 breast
CAKI-1 renal = test system: CAKI-1 renal
CCRF-CEM leukemia = test system: CCRF-CEM leukemia
COLO 205 colon = test system: COLO 205 colon
DU-145 prostate = test system: DU-145 prostate
EKVX NSCLC = test system: EKVX NSCLC
HCC-2998 colon = test system: HCC-2998 colon
HCT-116 colon = test system: HCT-116 colon
HCT-15 colon = test system: HCT-15 colon
HL-60(TB) leukemia = test system: HL-60(TB) leukemia
HOP-62 NSCLC = test system: HOP-62 NSCLC
HOP-92 NSCLC = test system: HOP-92 NSCLC
HS 578T breast = test system: HS 578T breast
HT29 colon = test system: HT29 colon
IGROV1 ovarian = test system: IGROV1 ovarian
K-562 leukemia = test system: K-562 leukemia
KM12 colon = test system: KM12 colon
LOX IMVI melanoma = test system: LOX IMVI melanoma
M14 melanoma = test system: M14 melanoma
MCF7 breast = test system: MCF7 breast
MDA-MB-231 breast = test system: MDA-MB-231 breast
MDA-MB-435 = test system: MDA-MB-435
MOLT-4 leukemia = test system: MOLT-4 leukemia
NCI-H226 lung = test system: NCI-H226 lung
NCI-H23 lung = test system: NCI-H23 lung
NCI-H460 lung = test system: NCI-H460 lung
NCI-H522 lung = test system: NCI-H522 lung
NCI/ADR-RES ovarian = test system: NCI/ADR-RES ovarian
OVCAR-3 ovarian = test system: OVCAR-3 ovarian
OVCAR-4 ovarian = test system: OVCAR-4 ovarian
OVCAR-5 ovarian = test system: OVCAR-5 ovarian
OVCAR-8 ovarian = test system: OVCAR-8 ovarian
PC-3 prostate = test system: PC-3 prostate
RPMI-8226 leukemia = test system: RPMI-8226 leukemia
RXF 393 renal = test system: RXF 393 renal
SF-268 CNS = test system: SF-268 CNS
SF-295 CNS = test system: SF-295 CNS
SF-539 CNS = test system: SF-539 CNS
SK-MEL-2 melanoma = test system: SK-MEL-2 melanoma
SK-MEL-28 melanoma = test system: SK-MEL-28 melanoma
SK-MEL-5 melanoma = test system: SK-MEL-5 melanoma
SK-OV-3 ovarian = test system: SK-OV-3 ovarian
SN12C renal = test system: SN12C renal
SNB-19 CNS = test system: SNB-19 CNS
SNB-75 CNS = test system: SNB-75 CNS
SR leukemia = test system: SR leukemia
SW-620 colon = test system: SW-620 colon
T-47D breast = test system: T-47D breast
TK-10 renal = test system: TK-10 renal
U251 CNS = test system: U251 CNS
UACC-257 melanoma = test system: UACC-257 melanoma
UACC-62 melanoma = test system: UACC-62 melanoma
UO-31 renal = test system: UO-31 renal

With `COc1ccc(Cn2cc3c(c2)-c2oncc2CC3)cc1OC` the GI50 (786-0 renal) was 536 nM, the TGI (786-0 renal) was > 21200 nM and the GI50 (A498 renal) was 102 nM. For the same compound, the TGI (A498 renal) was 678 nM, the GI50 (A549 NSCLC) was 283 nM and the TGI (A549 NSCLC) was 48400 nM. The GI50 (ACHN renal) was 325 nM, the TGI (ACHN renal) was > 50000 nM and the GI50 (BT-549 breast) was 344 nM. The TGI (BT-549 breast) was > 50000 nM, the GI50 (CAKI-1 renal) was 193 nM and the TGI (CAKI-1 renal) was > 31300 nM. For the same compound, the GI50 (CCRF-CEM leukemia) was 132 nM, the GI50 (COLO 205 colon) was 134 nM and the TGI (COLO 205 colon) was 346 nM. It also gave a GI50 (DU-145 prostate) of 163 nM, a TGI (DU-145 prostate) of 544 nM and a GI50 (EKVX NSCLC) of 233 nM. The TGI (EKVX NSCLC) was > 33700 nM, the GI50 (HCC-2998 colon) was 172 nM and the TGI (HCC-2998 colon) was 2540 nM. For the same compound, the GI50 (HCT-116 colon) was 193 nM, the TGI (HCT-116 colon) was 8570 nM and the GI50 (HCT-15 colon) was 214 nM. The TGI (HCT-15 colon) was > 50000 nM, the GI50 (HL-60(TB) leukemia) was 126 nM and the TGI (HL-60(TB) leukemia) was 439 nM. The GI50 (HOP-62 NSCLC) was 259 nM, the TGI (HOP-62 NSCLC) was > 50000 nM and the GI50 (HOP-92 NSCLC) was 1150 nM. The TGI (HOP-92 NSCLC) was 36300 nM, the GI50 (HS 578T breast) was 132 nM and the TGI (HS 578T breast) was 447 nM. The GI50 (HT29 colon) was 153 nM, the TGI (HT29 colon) was 1280 nM and the GI50 (IGROV1 ovarian) was 391 nM. The TGI (IGROV1 ovarian) was > 46300 nM, the GI50 (K-562 leukemia) was 163 nM and the TGI (K-562 leukemia) was > 16600 nM. It also gave a GI50 (KM12 colon) of 180 nM, a TGI (KM12 colon) of 1270 nM and a GI50 (LOX IMVI melanoma) of 366 nM. The TGI (LOX IMVI melanoma) was > 50000 nM, the GI50 (M14 melanoma) was 154 nM and the TGI (M14 melanoma) was 16000 nM. For the same compound, the GI50 (MCF7 breast) was 191 nM, the TGI (MCF7 breast) was > 41000 nM and the GI50 (MDA-MB-231 breast) was 255 nM. The TGI (MDA-MB-231 breast) was > 14300 nM, the GI50 (MDA-MB-435) was 77.4 nM and the TGI (MDA-MB-435) was 235 nM. For the same compound, the GI50 (MOLT-4 leukemia) was 274 nM, the TGI (MOLT-4 leukemia) was > 12200 nM and the GI50 (NCI-H226 lung) was 704 nM. The TGI (NCI-H226 lung) was > 50000 nM, the GI50 (NCI-H23 lung) was 200 nM and the TGI (NCI-H23 lung) was > 25300 nM. For the same compound, the GI50 (NCI-H460 lung) was 161 nM, the TGI (NCI-H460 lung) was 890 nM and the GI50 (NCI-H522 lung) was 146 nM. The TGI (NCI-H522 lung) was 677 nM, the GI50 (NCI/ADR-RES ovarian) was 132 nM and the TGI (NCI/ADR-RES ovarian) was 1380 nM. For the same compound, the GI50 (OVCAR-3 ovarian) was 134 nM, the TGI (OVCAR-3 ovarian) was 350 nM and the GI50 (OVCAR-4 ovarian) was 643 nM. The TGI (OVCAR-4 ovarian) was > 50000 nM, the GI50 (OVCAR-5 ovarian) was 339 nM and the TGI (OVCAR-5 ovarian) was > 41900 nM. For the same compound, the GI50 (OVCAR-8 ovarian) was 322 nM, the TGI (OVCAR-8 ovarian) was > 31700 nM and the GI50 (PC-3 prostate) was 395 nM. For the same compound, the TGI (PC-3 prostate) was > 50000 nM, the GI50 (RPMI-8226 leukemia) was 190 nM and the GI50 (RXF 393 renal) was 173 nM. The GI50 (SF-268 CNS) was 430 nM, the TGI (SF-268 CNS) was > 50000 nM and the GI50 (SF-295 CNS) was 150 nM. The TGI (SF-295 CNS) was 1710 nM, the GI50 (SF-539 CNS) was 140 nM and the TGI (SF-539 CNS) was 559 nM. For the same compound, the GI50 (SK-MEL-2 melanoma) was 248 nM, the TGI (SK-MEL-2 melanoma) was 15100 nM and the GI50 (SK-MEL-28 melanoma) was 326 nM. For the same compound, the TGI (SK-MEL-28 melanoma) was > 50000 nM, the GI50 (SK-MEL-5 melanoma) was 229 nM and the TGI (SK-MEL-5 melanoma) was 1700 nM. It also gave a GI50 (SK-OV-3 ovarian) of 152 nM, a TGI (SK-OV-3 ovarian) of 1140 nM and a GI50 (SN12C renal) of 331 nM. For the same compound, the TGI (SN12C renal) was > 50000 nM, the GI50 (SNB-19 CNS) was 258 nM and the TGI (SNB-19 CNS) was > 50000 nM. The GI50 (SNB-75 CNS) was 123 nM, the TGI (SNB-75 CNS) was 761 nM and the GI50 (SR leukemia) was 164 nM. For the same compound, the GI50 (SW-620 colon) was 153 nM, the TGI (SW-620 colon) was > 50000 nM and the GI50 (T-47D breast) was 267 nM. The TGI (T-47D breast) was > 19300 nM, the GI50 (TK-10 renal) was 453 nM and the TGI (TK-10 renal) was > 50000 nM. The GI50 (U251 CNS) was 211 nM, the TGI (U251 CNS) was > 28100 nM and the GI50 (UACC-257 melanoma) was 1690 nM. The TGI (UACC-257 melanoma) was 22300 nM, the GI50 (UACC-62 melanoma) was 273 nM and the TGI (UACC-62 melanoma) was > 50000 nM. It also gave a GI50 (UO-31 renal) of 272 nM and a TGI (UO-31 renal) of 23800 nM.
